Assay results taken from patent publication US11433055B2, “Chromane monobactam compounds for the treatment of bacterial infections” (priority 2017, dated 2022).
Counter-ions that a name gives are not always drawn.

How the values were obtained:
Type in all cases: cell-based
Conditions in all cases: lowest concentration inhibiting 95% of bacterial growth; in the presence of β lactamase inhibitor (BLi, Relebactam); 22 hours, 35±2° C., OD600
[1] = system: Escherichia coli expressing NDM-1 (CLB30016)
Method: (§1) Antibiotic Activity: Determination of Growth Inhibitory Concentration
(§2) The concentrations of compounds required to inhibit the growth of various strains of bacteria were determined in an assay that assessed bacterial growth by measuring optical density at 600 nm (OD600). The bacterial strains tested included the clinical strains Escherichia coli expressing NDM-1 (CLB30016), Klebsiella pneumoniae expressing KPC-1 (CL6569), Acinetobacter baumannii expressing TEM-1, AmpC, and Oxa-24/40 (CL6188) and Pseudomonas aeruginosa expressing AmpC (CL5701). All compounds were tested in the presence of a β lactamase inhibitor (BLi, Relebactam) in 384-well microplates. The clinical strains were stored as frozen single use stocks, thawed and diluted into 1.1× cation-adjusted Mueller-Hinton II broth to achieve approximately 2×10^5 CFU/mL. Test compounds were dissolved in DMSO and diluted 1:50 in the assay, resulting in a final concentration range of 100 μM to 0.098 μM. On the day of the assay, 1 μL of test compound was added to the plate followed by 4 μL of 50 μg/mL BLi in MOPS buffer and 45 μL of diluted bacteria. Plates were centrifuged at 1000 rpm for 30 seconds, shaken at approximately 800 rpm for 1 minute, and incubated at 35±2° C. for 22 hours. The concentration of BLi used in the assay was […]. At the end of the incubation, absorbance at 600 nm was determined using a spectrophotometer. Inhibition was quantitated by identifying the lowest concentration of test compound that was required to inhibit 95% of the growth of the bacteria. The results for Examples 1-39 are reported in Table I, expressed as the concentration of compound that inhibited 95% of bacterial growth (Minimum Inhibitory Threshold Concentration; MITC95).

[2] = system: Klebsiella pneumoniae expressing KPC-1 (CL6569)
Method: as §1, §2

[3] = system: Pseudomonas aeruginosa expressing AmpC (CL5701)
Method: as §1, §2

[4] = system: Acinetobacter baumannii expressing TEM-1, AmpC, and Oxa-24/40 (CL6188)
Method: as §1, §2

Molecule	EC_CLB30016 MITC95 [1] [µM]	KP_CL6569 MITC95 [2] [µM]	PA_CL5701 MITC95 [3] [µM]	AB_CL6188 MITC95 [4] [µM]
C[n+]1cc(-c2ccc3c(c2)CC[C@H]([C@](C)(O/N=C(\C(=O)N[C@@H]2C(=O)N(OS(=O)(=O)[O-])C2(C)C)c2csc(N)n2)C(=O)O)O3)cn1CC1(N)CNC1 [Example 6, (S)-3-((Z)-2-(((S)-1-((R)-6-(1-((3-Aminoazetidin-3-yl)methyl)-2-methyl-1H-pyrazol-2-ium-4-yl)chroman-2-yl)-1-carboxyethoxy)imino)-2-(2-aminothiazol-4-yl)acetamido)-2,2-dimethyl-4-oxoazetidin-1-yl Sulfate]	100	12.5	100	100
C[n+]1cc(-c2ccc3c(c2)CC[C@H](CO/N=C(\C(=O)N[C@@H]2C(=O)N(OS(=O)(=O)[O-])C2(C)C)c2csc(N)n2)O3)ccc1NCCN [Example 35, mono((R)-3-((Z)-2-(2-aminothiazol-3-ium-4-yl)-2-((((R)-6-(6-((2-ammonioethyl)amino)-1-methyl-pyridin-1-ium-3-yl)chroman-2-yl)methoxy)imino)acetamido)-2,2-dimethyl-4-oxoazetidin-1-yl sulfate) mono(2,2,2-trifluoroacetate)]	25	1.281	50	6.25
(S)-3-((Z)-2-(((S)-1-((R)-6-(1-(3-Aminopropyl)-2-(azetidin-3-ylmethyl)-1H-pyrazol-2-ium-4-yl)chroman-2-yl)-1-carboxyethoxy)imino)-2-(2-aminothiazol-4-yl)acetamido)-2,2-dimethyl-4-oxoazetidin-1-yl Sulfate [Example 3]	3.13	0.39	6.25	6.25
CC1(C)[C@H](NC(=O)/C(=N\O[C@](C)(C(=O)O)[C@H]2CCc3cc(-c4ccc(NCCCN)[n+](CCCN)c4)ccc3O2)c2csc(N)n2)C(=O)N1OS(=O)(=O)[O-].O=CO [Example 21, (S)-3-((Z)-2-(((S)-1-((R)-6-(1-(3-aminopropyl)-6-((3-ammoniopropyl)amino)pyridin-1-ium-3-yl)chroman-2-yl)-1-carboxyethoxy)imino)-2-(2-aminothiazol-4-yl)acetamido)-2,2-dimethyl-4-oxoazetidin-1-yl sulfate formate]	6.25	0.3906	12.5	3.125
C[n+]1cc(-c2ccc3c(c2)CC[C@H]([C@](C)(O/N=C(\C(=O)N[C@@H]2C(=O)N(OS(=O)(=O)[O-])C2(C)C)c2csc(N)n2)C(=O)O)O3)cnc1NC[C@H](O)CN.O=CO [Example 17, (S)-3-((Z)-2-(2-aminothiazol-4-yl)-2-(((S)-1-((R)-6-(2-(((R)-3-ammonio-2-hydroxy-propyl)amino)-1-methyl-pyrimidin-1-ium-5-yl)chroman-2-yl)-1-carboxy-ethoxy)imino)acetamido)-2,2-dimethyl-4-oxoazetidin-1-yl sulfate formate]	6.25	0.3906	6.25	12.5
CC1(C)[C@H](NC(=O)/C(=N\O[C@](C)(C(=O)O)[C@H]2CCc3cc(-c4cnc(NCCCN)nc4)ccc3O2)c2csc(N)n2)C(=O)N1OS(=O)(=O)O [Example 33, 3-((5-((R)-2-((S)-1-((((Z)-1-(2-aminothiazol-4-yl)-2-(((S)-2,2-dimethyl-4-oxo-1-(sulfooxy)azetidin-3-yl)amino)-2-oxoethylidene)amino)oxy)-1-carboxyethyl)chroman-6-yl)pyrimidin-2-yl)amino)propan-1-aminium Formate]	6.25	0.3906	6.25	3.125
CC1(C)[C@H](NC(=O)/C(=N\O[C@](C)(C(=O)O)[C@H]2CCc3cc(C4CN=C(NC(CN)CN)NC4)ccc3O2)c2csc(N)n2)C(=O)N1OS(=O)(=O)O.O=CO (stereo partly drawn) [Example 31, 5-((R)-2-((S)-1-((((Z)-1-(2-aminothiazol-4-yl)-2-(((S)-2,2-dimethyl-4-oxo-1-(sulfooxy)azetidin-3-yl)amino)-2-oxoethylidene)amino)oxy)-1-carboxyethyl)chroman-6-yl)-2-((1,3-diaminopropan-2-yl)amino)-3,4,5,6-tetrahydropyrimidin-1-ium formate]	6.25	0.3906	3.125	3.125
C[n+]1cc(-c2ccc3c(c2)OCC(CO/N=C(\C(=O)N[C@@H]2C(=O)N(OS(=O)(=O)[O-])C2(C)C)c2csc(N)n2)C3)ccc1NCCN.O=C(O)C(F)(F)F (stereo partly drawn) [Example 38, mono((S)-3-((Z)-2-(2-aminothiazol-3-ium-4-yl)-2-((((S)-7-(6-((2-ammonioethyl)amino)-1-methylpyridin-1-ium-3-yl)chroman-3-yl)methoxy)imino)acetamido)-2,2-dimethyl-4-oxoazetidin-1-yl sulfate) mono(2,2,2-trifluoroacetate)]	6.25	0.3906	6.25	6.25
CC1(C)[C@H](NC(=O)/C(=N\O[C@](C)(C(=O)O)[C@H]2CCc3cc(-c4cn(C[C@@H](O)CN)[n+](C[C@@H]5CCNC5)c4)ccc3O2)c2csc(N)n2)C(=O)N1OS(=O)(=O)O.O=C([O-])C(F)(F)F [Example 40, Mono((S)-3-((Z)-2-(((S)-1-((R)-6-(1-((S)-3-amino-2-hydroxypropyl)-2-((R)-pyrrolidin-3-ylmethyl)-1H-pyrazol-2-ium-4-yl)chroman-2-yl)-1-carboxyethoxy)imino)-2-(2-aminothiazol-4-yl)acetamido)-2,2-dimethyl-4-oxoazetidin-1-yl sulfate) mono (2,2,2-trifluoroacetate)]	>50	0.1	0.78	1.56
C[n+]1cc(-c2ccc3c(c2)CC[C@H]([C@](C)(O/N=C(\C(=O)N[C@@H]2C(=O)N(OS(=O)(=O)[O-])C2(C)C)c2csc(N)n2)C(=O)O)O3)cnc1NC(CN)CN.O=CO [Example 24, (3S)-3-((Z)-2-(((1S)-1-((2R)-6-(2-((1-amino-3-ammonio-propan-2-yl)amino)-1-methyl-pyrimidin-1-ium-5-yl)chroman-2-yl)-1-carboxyethoxy)imino)-2-(2-aminothiazol-4-yl)acetamido)-2,2-dimethyl-4-oxoazetidin-1-yl sulfate formate]	3.125	0.3906	3.125	1.563
C[n+]1cc(-c2ccc3c(c2)CC[C@H](CO/N=C(\C(=O)N[C@@H]2C(=O)N(OS(=O)(=O)[O-])C2(C)C)c2csc(N)n2)O3)cn1CCCN [Example 11, (S)-3-((Z)-2-((((R)-6-(1-(3-aminopropyl)-2-methyl-1H-pyrazol-2-ium-4-yl)chroman-2-yl)methoxy)imino)-2-(2-aminothiazol-4-yl)acetamido)-2,2-dimethyl-4-oxoazetidin-1-yl sulfate]	6.25	0.7813	3.125	3.125
CC1(C)[C@H](NC(=O)/C(=N\O[C@](C)(C(=O)O)[C@H]2CCc3cc(-c4cnc(NC[C@@H](O)CN)[n+](CC5CNC5)c4)ccc3O2)c2csc(N)n2)C(=O)N1OS(=O)(=O)[O-].O=CO [Example 20, (S)-3-((Z)-2-(((S)-1-((R)-6-(2-(((S)-3-amino-2-hydroxy-propyl)amino)-1-(azetidin-1-ium-3-ylmethyl)pyrimidin-1-ium-5-yl)chroman-2-yl)-1-carboxyethoxy)imino)-2-(2-aminothiazol-4-yl)acetamido)-2,2-dimethyl-4-oxoazetidin-1-yl sulfate formate]	6.25	0.3906	6.25	6.25
CC1(C)[C@H](NC(=O)/C(=N\OCC2CCc3cc(C(=N)NCCN)ccc3O2)c2csc(N)n2)C(=O)N1OS(=O)(=O)O (stereo partly drawn) [Example 13, (3S)-3-((Z)-2-(((6-(N-(2-aminoethyl)carbamimidoyl)chroman-2-yl)methoxy)imino)-2-(2-aminothiazol-4-yl)acetamido)-2,2-dimethyl-4-oxoazetidin-1-yl hydrogen sulfate]	12.5	0.7813	12.5	25
